Where a name gives a salt, the structure may show the parent alone.
Test system: mPer2Luc MEF
Assay: PER2::LUC luminescence relative to vehicle control (fold of vehicle); higher = higher PER2::LUC reporter signal
Description: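 Secondary dose-response validation of 72 circadian-modulating compounds in mPer2Luc MEFs, threefold dilution series of six doses from 10 uM down to 0.04 uM. PER2::LUC luminescence read at 24 h and 30 h after treatment, normalised to vehicle (DMSO) control.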

[1] = time after treatment: 24-hour, concentration: 0.04μM
[2] = time after treatment: 24-hour, concentration: 0.37μM
[3] = time after treatment: 24-hour, concentration: 3.33μM
[4] = time after treatment: 24-hour, concentration: 10μM
[5] = time after treatment: 30-hour, concentration: 0.04μM
[6] = time after treatment: 30-hour, concentration: 0.37μM
[7] = time after treatment: 30-hour, concentration: 3.33μM
[8] = time after treatment: 30-hour, concentration: 10μM

| SMILES | PER2::LUC luminescence [1] | PER2::LUC luminescence [2] | PER2::LUC luminescence [3] | PER2::LUC luminescence [4] | PER2::LUC luminescence [5] | PER2::LUC luminescence [6] | PER2::LUC luminescence [7] | PER2::LUC luminescence [8] |
| --- | --- | --- | --- | --- | --- | --- | --- | --- |
| OCc1ccc(-c2ccc(-c3ccc(CO)s3)o2)s1 | 1.37 | 1.41 | 1.49 | 1.24 | 1.62 | 1.63 | 1.68 | 1.41 |
| Cc1cccc(/C=N/Nc2cc(N3CCOCC3)n3nc(-c4ccncc4)cc3n2)c1 [APY0201] | 0.206 | 0.187 | 0.151 | 0.04 | 0.16 | 0.145 | 0.117 | 0.038 |
| NCC(=O)N1C[C@H](NC(=O)c2ccccc2)C[C@H]1C(=O)O [GAP-134 (Hydrochloride)] | 0.994 | 0.988 | 1.05 | 1.04 | 1.04 | 1.04 | 1.06 | 1.02 |
| CC(C)c1cnn2c(NCc3ccccc3)cc(NCCCCCCN)nc12 [BS-181] | 1.05 | 0.946 | 0.807 | 0.33 | 0.972 | 0.943 | 0.934 | 0.422 |
| COc1cc(OC)cc(C(=O)Nc2ccc(Cl)c(-c3nc4ccc(N(C)C)cc4[nH]3)c2)c1 [HhAntag] | 1.03 | 1.07 | 1.03 | 1.12 | 0.988 | 1.04 | 1.12 | 1.44 |
| CCc1nc(-c2cccc(C)c2)c(-c2ccnc(NC(=O)c3ccccc3)c2)s1 [TAK 715] | 0.993 | 0.95 | 0.955 | 0.895 | 0.926 | 0.929 | 0.924 | 0.888 |
| COc1cc(C(=O)N2CCC(N3CCN(C)CC3)CC2)ccc1Nc1ncc2c(n1)N(C)c1ccccc1C(=O)N2C [LRRK2-IN-1] | 0.815 | 0.751 | 0.337 | 0.1 | 0.817 | 0.716 | 0.351 | 0.098 |
| COc1cc2c(Oc3ccc4[nH]c(C)cc4c3F)ncnc2cc1OCCCN1CCCC1 [Cediranib] | 0.767 | 0.585 | 0.35 | 0.033 | 0.662 | 0.496 | 0.306 | 0.019 |
| CNC(=O)c1cc(Oc2ccc(NC(=O)Nc3cc(C(C)(C)C)nn3-c3ccc4ncccc4c3)c(F)c2)ccn1 [DCC-2036] | 1.27 | 1.3 | 1.28 | 1.1 | 1.72 | 1.81 | 1.74 | 1.27 |
| CN(C)C/C=C/C(=O)Nc1cc2c(Nc3ccc(F)c(Cl)c3)ncnc2cc1O[C@H]1CCOC1 [BIBW2992 DiMaleate] | 0.774 | 0.77 | 0.48 | 0.026 | 0.705 | 0.696 | 0.442 | 0.028 |
| O=C(/C=C/c1cccnc1)NCCCCC1CCN(C(=O)c2ccccc2)CC1 [FK866] | 0.987 | 1.02 | 0.955 | 0.89 | 0.67 | 0.643 | 0.595 | 0.49 |
| Cc1ccc([C@@H]2O[C@H](CO)[C@@H](O)[C@H](O)[C@H]2O)cc1Cc1ccc(-c2ccc(F)cc2)s1 [Canagliflozin] | 1.01 | 0.998 | 0.985 | 1.09 | 0.996 | 0.996 | 0.964 | 0.974 |
| Cc1nc(Nc2ncc(C(=O)Nc3c(C)cccc3Cl)s2)cc(N2CCN(CCO)CC2)n1 [Dasatinib] | 0.438 | 0.416 | 0.269 | 0.074 | 0.368 | 0.366 | 0.244 | 0.084 |
| COc1ccc(-c2nc3cc(F)ccc3s2)cc1OC | 1.36 | 1.39 | 1.36 | 1.36 | 1.66 | 1.69 | 1.67 | 1.58 |
| COc1ccc(C[C@H]2NC[C@H](O)[C@H]2OC(C)=O)cc1 [Anisomycin] | 0.056 | 0.032 | 0.002 | 0.001 | 0.06 | 0.05 | 0.001 | 0.001 |
| O=C(O)c1ccc2c(c1)nc(Nc1cccc(Cl)c1)c1ccncc12 [CX-4945] | 1.13 | 1.06 | 1.05 | 0.842 | 1.11 | 1.05 | 1.08 | 1.06 |
| C/C(=C\C(=O)Nc1ccccc1C(=O)O)c1ccc2ccccc2c1 [BIBR 1532] | 0.94 | 0.97 | 0.991 | 1.16 | 0.94 | 0.891 | 0.98 | 1.26 |
| O=c1sn(-c2cccc3ccccc23)c(=O)n1Cc1ccccc1 [Tideglusib] | 0.908 | 0.902 | 0.864 | 0.879 | 0.9 | 0.856 | 0.886 | 0.891 |
| CCOC(=O)N1c2ccc(C(F)(F)F)cc2[C@@H](N(Cc2cc(C(F)(F)F)cc(C(F)(F)F)c2)C(=O)OC)C[C@H]1CC | 0.989 | 0.984 | 0.939 | 0.99 | 0.935 | 0.917 | 0.959 | 0.943 |
| COc1cc(CCc2cc(NC(=O)c3ccc(N4CC(C)NC(C)C4)cc3)n[nH]2)cc(OC)c1 (stereo not given) [AZD4547] | 0.792 | 0.795 | 0.679 | 0.329 | 0.796 | 0.73 | 0.643 | 0.278 |

— the supplement of paper PMC9334596
